According to US8258134B2, “Pyridazinone glucokinase activators” (Hoffmann-La Roche Inc., priority 2008, dated 2012):

Columns and labels:
[1] = target: T1, Recombinant human liver GK1 (GST-GK) (Homo sapiens, UniProt P35557); test: Glucokinase in vitro assay (G6PDH-coupled NADH generation, OD340); type: biochemical; settings: 5 mM D-glucose, 30° C., pH 7.1, 10% DMSO
T1 construct: made in house; host or cells: E. coli
T1 sequence (P35557 1-466 isoform P35557-2): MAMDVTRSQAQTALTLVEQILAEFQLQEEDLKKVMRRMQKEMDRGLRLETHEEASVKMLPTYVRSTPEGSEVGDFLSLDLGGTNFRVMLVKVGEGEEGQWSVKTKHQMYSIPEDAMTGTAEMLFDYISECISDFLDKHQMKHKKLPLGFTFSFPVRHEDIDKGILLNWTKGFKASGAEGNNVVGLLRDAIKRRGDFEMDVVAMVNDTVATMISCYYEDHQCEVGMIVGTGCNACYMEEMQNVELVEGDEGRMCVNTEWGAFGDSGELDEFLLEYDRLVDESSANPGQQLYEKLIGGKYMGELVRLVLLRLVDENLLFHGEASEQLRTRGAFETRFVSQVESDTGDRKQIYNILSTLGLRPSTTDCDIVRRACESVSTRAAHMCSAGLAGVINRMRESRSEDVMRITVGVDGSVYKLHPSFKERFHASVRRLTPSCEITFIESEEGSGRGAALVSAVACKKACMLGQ
How it was run: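 Activation readout is SC1.5, the activator concentration raising GK rate (OD340/min) 50% above 10% DMSO controls. The coupled reaction used GST-GK1 from E. coli, 5 mM glucose, 1 mM ATP, 1.8 mM NAD and 25 mM Hepes pH 7.1 at 30° C. Enzyme was added after a 10 min compound pre-incubation.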

[2] = system: Lean C57BL/6J mice; test: Glucokinase activator in vivo screen, blood glucose in lean mice; settings: Mus musculus, vs control at 4 hours post 50 mg/kg oral dose, two hour fast, read-out: % glucose lowering @ 4 H
Protocol: Glucokinase Activator in vivo Screen Protocol in Lean and Diet Induced Obese Mice: Lean or Diet-induced Obese (DIO) C57BL/6J mice were orally dosed via gavage with Glucokinase (GK) activator following a two hour fasting period. Blood glucose determinations were made at various (e.g. 0, 1, 2, 4 and 8 hours post-oral gavage) times during the study.
C57Bl/6J mice were obtained from Jackson Laboratory (Bar Harbor, Me.) and were maintained in a light-dark cycle with lights on from 0600-1800 hr. For studies in lean mice, the mice were received at age ten weeks and given ad libitum access to control diet (LabDiet 5001 chow, PMI Nutrition, Brentwood, Mo.), and were at least age 11 weeks at the time of study. For studies in the DIO model, the mice were received at age five weeks and given ad libitum access to Bio-Serv F3282 High Fat Diet (Frenchtown, N.J.), and were at least age 16 weeks at the time of study. The experiments were conducted during the light phase of the light-dark cycle. Mice (n=6) are weighed and fasted for a two hour period prior to oral treatment. GK activators are formulated in Gelucire vehicle (Ethanol:Gelucire44/14:PEG400q.s. 4:66:30 v/w/v. For studies in lean mice, the mice were dosed orally with 5.0 μL per gram of body weight (i.e. 5 ml/kg×10.0 mg/ml formulation to equal a 50 mg/kg dose). For studies in DIO mice, the mice were dosed orally with 5.0 μL per gram of body weight (i.e. 5.0 ml/kg×5 mg/ml formulation to equal a 25 mg/kg dose). Immediately prior to dosing, a pre-dose (time zero) blood glucose reading was acquired by snipping off a small portion of the animal's tail and collecting 15 μL blood into a heparinized capillary tube for analysis. Following GK activator administration, additional blood glucose readings were taken at various time points post dose from the same tail wound. Results were interpreted by comparing the mean blood glucose values of vehicle treated mice with GK activator treated mice over the study period.
The Table below provides data for % glucose lowering of a representative number of compounds of the present invention vs control at 4 hours post 50 mg/kg dose in lean C57BL/6J mice: […]

`COc1ccccc1Oc1cnn(C(CC2CCCC2)C(=O)Nc2ccn(CC(C)(C)O)n2)c(=O)c1` (stereo not shown) [Example 12, 3-Cyclopentyl-N-[1-(2-hydroxy-2-methyl-propyl)-1H-pyrazol-3-yl]-2-[4-(2-methoxy-phenoxy)-6-oxo-6H-pyridazin-1-yl]-propionamide] was tested, and the “SC1.5 average (concentration of activator that produced a 50% increase in the activity of GK)” value [1] was 0.117 µM and the change in vivo at 50 mg/kg [2] was -49.3%.

In the case of `Cn1nc(NC(=O)C(CC2CCCC2)n2ncc(Oc3ccccc3C(F)(F)F)cc2=O)cc1Cl` (stereo not shown) [Example 13, N-(5-Chloro-1-methyl-1H-pyrazol-3-yl)-3-cyclopentyl-2-[6-oxo-4-(2-trifluoromethyl-phenoxy)-6H-pyridazin-1-yl]-propionamide], the “SC1.5 average (concentration of activator that produced a 50% increase in the activity of GK)” value [1] was 0.179 µM and the change in vivo at 50 mg/kg [2] was -45.8%.

`Cn1ccc(NC(=O)C(CC2CCCC2)n2ncc(Oc3ccccc3C(F)(F)F)cc2=O)n1` (stereo not shown) [Example 14, 3-Cyclopentyl-N-(1-methyl-1H-pyrazol-3-yl)-2-[6-oxo-4-(2-trifluoromethyl-phenoxy)-6H-pyridazin-1-yl]-propionamide] was tested, and the “SC1.5 average (concentration of activator that produced a 50% increase in the activity of GK)” value [1] was 0.256 µM and the change in vivo at 50 mg/kg [2] was -46.7%.

`CC(C)(O)Cn1ccc(NC(=O)C(CC2CCCC2)n2ncc(Oc3cccc4c3CCCC4)cc2=O)n1` (stereo not shown) [Example 17, 3-Cyclopentyl-N-[1-(2-hydroxy-2-methyl-propyl)-1H-pyrazol-3-yl]-2-[6-oxo-4-(5,6,7,8-tetrahydro-naphthalen-1-yloxy)-6H-pyridazin-1-yl]-propionamide] was tested, and the “SC1.5 average (concentration of activator that produced a 50% increase in the activity of GK)” value [1] was 0.113 µM and the change in vivo at 50 mg/kg [2] was -35.2%.

`CC(C)(O)Cn1ccc(NC(=O)C(CC2CCCC2)n2ncc(Oc3ccccc3F)cc2=O)n1` (stereo not shown) [Example 19, 3-Cyclopentyl-2-[4-(2-fluoro-phenoxy)-6-oxo-6H-pyridazin-1-yl]-N-[1-(2-hydroxy-2-methyl-propyl)-1H-pyrazol-3-yl]-propionamide] was tested, and the “SC1.5 average (concentration of activator that produced a 50% increase in the activity of GK)” value [1] was 0.14 µM and the change in vivo at 50 mg/kg [2] was -49.2%.

In the case of `CC(C)(O)Cn1ccc(NC(=O)C(CC2CCCC2)n2ncc(Oc3ccccc3C3CCCC3)cc2=O)n1` (stereo not shown) [Example 22, 3-Cyclopentyl-2-[4-(2-cyclopentyl-phenoxy)-6-oxo-6H-pyridazin-1-yl]-N-[1-(2-hydroxy-2-methyl-propyl)-1H-pyrazol-3-yl]-propionamide], the “SC1.5 average (concentration of activator that produced a 50% increase in the activity of GK)” value [1] was 0.347 µM and the change in vivo at 50 mg/kg [2] was -31.6%.

With `Cc1ccccc1Oc1cnn(C(CC2CCCC2)C(=O)Nc2ccn(CC(C)(C)O)n2)c(=O)c1` (stereo not shown) [Example 24, 3-Cyclopentyl-N-[1-(2-hydroxy-2-methyl-propyl)-1H-pyrazol-3-yl]-2-(6-oxo-4-o-tolyloxy-6H-pyridazin-1-yl)-propionamide] the “SC1.5 average (concentration of activator that produced a 50% increase in the activity of GK)” value [1] was 0.174 µM and the change in vivo at 50 mg/kg [2] was -62.1%.

In the case of `CC(C)(O)Cn1ccc(NC(=O)C(CC2CCCC2)n2ncc(Oc3ccccc3C#N)cc2=O)n1` (stereo not shown) [Example 29, 2-[4-(2-Cyano-phenoxy)-6-oxo-6H-pyridazin-1-yl]-3-cyclopentyl-N-[1-(2-hydroxy-2-methyl-propyl)-1H-pyrazol-3-yl]-propionamide], the “SC1.5 average (concentration of activator that produced a 50% increase in the activity of GK)” value [1] was 0.227 µM and the change in vivo at 50 mg/kg [2] was -27.8%.

With `CC(C)(O)Cn1ccc(NC(=O)C(CC2CCCC2)n2ncc(Oc3cc(F)ccc3F)cc2=O)n1` (stereo not shown) [Example 33, 3-Cyclopentyl-2-[4-(2,5-difluoro-phenoxy)-6-oxo-6H-pyridazin-1-yl]-N-[1-(2-hydroxy-2-methyl-propyl)-1H-pyrazol-3-yl]-propionamide] the “SC1.5 average (concentration of activator that produced a 50% increase in the activity of GK)” value [1] was 0.356 µM and the change in vivo at 50 mg/kg [2] was -30.2%.

In the case of `CC(C)(O)Cn1ccc(NC(=O)C(CC2CCCC2)n2ncc(Oc3c(F)cccc3F)cc2=O)n1` (stereo not shown) [Example 36, 3-Cyclopentyl-2-[4-(2,6-difluoro-phenoxy)-6-oxo-6H-pyridazin-1-yl]-N-[1-(2-hydroxy-2-methyl-propyl)-1H-pyrazol-3-yl]-propionamide], the “SC1.5 average (concentration of activator that produced a 50% increase in the activity of GK)” value [1] was 0.063 µM and the change in vivo at 50 mg/kg [2] was -60.9%.

In the case of `O=C(O)c1ccc(NC(=O)C(CC2CCCC2)n2ncc(Oc3ccccc3C3CCCC3)cc2=O)nc1` (stereo not shown) [Example 71, 6-{3-Cyclopentyl-2-[4-(2-cyclopentyl-phenoxy)-6-oxo-6H-pyridazin-1-yl]-propionylamino}-nicotinic acid], the “SC1.5 average (concentration of activator that produced a 50% increase in the activity of GK)” value [1] was 0.312 µM and the change in vivo at 50 mg/kg [2] was -61.7%.
